The star is where a group is joined. ACC = NC(=O)Cc1cc(=O)oc2cc(N*)ccc12; AMC = Cc1cc(=O)oc2cc(N*)ccc12; Boc = CC(C)(C)OC(=O)*
Tests used:
[1] = target: T1, KLK7 (Homo sapiens, UniProt P49862); assay: Enzyme kinetics to calculate KM, KLK7; format: biochemical; details: fluorogenic substrate, KLK7 34 nM, 2% DMSO, room temperature, 30 min, Michaelis-Menten model, triplicates
T1 construct: gift from the group of Judith Clements (QUT)
Method: (§1) Reagents were obtained from VWR, Sigma Aldrich, Sartorius, Fluorochem, AGTC, Novabiochem, TCI, Alfa Aesar, Iris Biotech, Thermofisher and Bachem. […]
(§2) (Code 7449-SE) and KLK8 (Code 2025-SE) were obtained from BioTechne. KLK6 was obtained from the group of Aubry Miller (DKFZ) and KLK7 was obtained from the group of Judith Clements (QUT).
(§3) The manufacturer’s recommended buffers were used with uPA and tPA but not KLK8. […]
(§4) Fluorescence measurements were measured using an Envision plate reader. Fluorescence data was processed using Graphpad Prism 8. […]
(§5) 2-chlorotrityl chloride resin. […]
(§6) 380nm/440nm. The data was analysed using Graphpad Prism 8. The initial slopes of each plot were calculated and presented in a bar chart, which represents the substrate specificity of the KLK. Error bars represent the standard deviation between the three replicates.
(§7) Enzyme kinetics to calculate KM. Purified fluorogenic substrates were measured in triplicates. […]
(§8) temperature, fluorescence was read once every 30 s for 30 min from an Envision plate reader at excitation/emission wavelengths of 380nm/440nm. The data was analysed with Graphpad Prism 8, using the Michaelis-Menten model.
(§9) Enzyme kinetics to calculate kobs/I. All ABPs and inhibitors were measured in triplicates. […]
(§10) using a pseudo first order kinetics model. The observed rate of inhibition (kobs) was calculated by plotting a one-phase association. […]

[2] = target: T2, KLK8 (Homo sapiens, UniProt O60259); assay: Enzyme kinetics to calculate KM, KLK8; format: biochemical; details: fluorogenic substrate, KLK8 1 nM, 2% DMSO, room temperature, 30 min, Michaelis-Menten model, triplicates
T2 construct: Active recombinant FGFBP1 (Code 1593-FB), HSPG2 (Code 2364-ER), uPA (Code 1310-SE), tPA (Code 7449-SE) and KLK8 (Code 2025-SE) were obtained from BioTechne; purchased BioTechne 2025-SE
T2 sequence (O60259 33-260): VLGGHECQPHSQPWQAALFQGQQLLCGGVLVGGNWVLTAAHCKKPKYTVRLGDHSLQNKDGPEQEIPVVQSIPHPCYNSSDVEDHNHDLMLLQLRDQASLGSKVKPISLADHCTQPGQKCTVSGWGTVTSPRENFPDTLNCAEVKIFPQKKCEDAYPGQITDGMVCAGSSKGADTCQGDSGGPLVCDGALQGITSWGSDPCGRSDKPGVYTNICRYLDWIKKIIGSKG
Method: as §1, §2, §3, §4, §5, §6, §7, §8, §9, §10

[3] = test system: KLK6; assay: Enzyme kinetics to calculate kobs/I, KLK6; format: biochemical, human; details: KLK6 1.5 nM, fluorogenic substrate 22 5 µM, 50 mM Tris 150 mM NaCl 1 mM EDTA 0.05% Tween20 pH 7.5, room temperature, read every 30 s for 30 min, ex/em 380/440 nm, pseudo first order kinetics, corrected by (1 + [S]/KM), triplicates
[4] = target: T2, KLK8; assay: Enzyme kinetics to calculate kobs/I, KLK8; format: biochemical; details: KLK8 1 nM, Boc-VPR-AMC 30 µM, 100 mM Na2PO4 0.01% Tween20 pH 8.5, room temperature, 30 min, pseudo first order kinetics, triplicates
[5] = target: T1, KLK7; assay: Enzyme kinetics to calculate kobs/I, KLK7; format: biochemical; details: KLK7 34 nM, substrate 24 5 µM, 100 mM Na2PO4 0.01% Tween20 pH 8.5, room temperature, 30 min, pseudo first order kinetics, triplicates
Method: as §1, §2
(§11) The manufacturer’s recommended buffers were used with uPA and tPA but not KLK8. The KLK6 assay buffer was as follows: 50 mM Tris 150 mM NaCl, 1 mM EDTA, 0.05% Tween20, pH 7.5. The KLK7/8 buffer was as follows: 100 mM Na2PO4, 0.01% Tween20, pH 8.5. Fluorescence measurements were measured using an Envision plate reader. Fluorescence data was processed using Graphpad Prism 8. […]
as §5

[6] = target: T3, urokinase plasminogen activator (uPA) (Homo sapiens, UniProt P00749); assay: Enzyme kinetics to calculate kobs/I, uPA; format: biochemical; details: uPA 2 nM, Z-GGR-AMC 60 µM, manufacturer's buffer, room temperature, 30 min, pseudo first order kinetics, triplicates
T3 construct: purchased BioTechne 1310-SE
Method: as §1, §2, §11, §5

[7] = target: T4, tissue plasminogen activator (tPA) (Homo sapiens, UniProt P00750); assay: Enzyme kinetics to calculate kobs/I, tPA; format: biochemical; details: tPA 2 nM, Z-GGR-AMC 60 µM, manufacturer's buffer, room temperature, 30 min, pseudo first order kinetics, triplicates
T4 construct: purchased BioTechne 7449-SE
T4 sequence (P00750 36-562): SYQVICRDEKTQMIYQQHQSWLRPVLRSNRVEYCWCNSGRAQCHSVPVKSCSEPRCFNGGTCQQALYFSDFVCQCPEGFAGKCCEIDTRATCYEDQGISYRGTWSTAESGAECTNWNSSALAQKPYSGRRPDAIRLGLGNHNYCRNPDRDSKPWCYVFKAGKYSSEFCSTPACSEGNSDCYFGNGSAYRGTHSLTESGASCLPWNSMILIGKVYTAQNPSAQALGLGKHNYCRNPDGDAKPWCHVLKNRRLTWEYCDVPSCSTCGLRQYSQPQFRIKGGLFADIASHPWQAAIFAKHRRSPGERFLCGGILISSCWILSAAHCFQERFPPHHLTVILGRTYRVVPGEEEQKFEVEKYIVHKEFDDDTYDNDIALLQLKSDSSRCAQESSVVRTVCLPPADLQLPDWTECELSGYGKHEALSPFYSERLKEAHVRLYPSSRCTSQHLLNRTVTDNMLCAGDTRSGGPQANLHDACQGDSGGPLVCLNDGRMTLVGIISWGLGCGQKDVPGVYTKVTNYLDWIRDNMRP
Method: as §1, §2, §11, §5

[8] = test system: recombinant wild-type KLK6; assay: In-gel fluorescence labelling of recombinant wild-type KLK6; format: binding, human; details: 1 h incubation
Description: (§12) Figure 3 ABP validation. […] Pulldown lanes show enriched proteins after streptavidin binding.

[9] = test system: KLK6[S195A]; assay: In-gel fluorescence labelling of inactive KLK6[S195A]; format: binding, human; details: 1 h incubation
Description: as §12

[10] = test system: endogenous tPA and uPA; assay: Competition labelling in Capan-2 conditioned media (NeutrAvidin-HRP blot); details: 2 h preincubation then bABP 17 1 h, concentrations as high as 40 μM
Description: as §12

[11] = target: T5, tPA (Homo sapiens, UniProt P00750); assay: Enzyme kinetics to calculate KM, tPA; format: biochemical; details: fluorogenic substrate, tPA 2 nM, 2% DMSO, room temperature, 30 min, Michaelis-Menten model, triplicates
T5 construct: purchased BioTechne 7449-SE
T5 sequence (P00750 36-562): as above
Method: as §1, §2, §3, §4, §5, §6, §7, §8, §9, §10

[12] = target: T6, uPA (Homo sapiens, UniProt P00749); assay: Enzyme kinetics to calculate KM, uPA; format: biochemical; details: fluorogenic substrate, uPA 2 nM, 2% DMSO, room temperature, 30 min, Michaelis-Menten model, triplicates
T6 construct: purchased BioTechne 1310-SE
Method: Reagents were obtained from VWR, Sigma Aldrich, Sartorius, Fluorochem, AGTC, Novabiochem, TCI, Alfa Aesar, Iris Biotech, Thermofisher and Bachem. 1H and 13C NMR spectra were measured on 400 MHz Bruker AV instruments. Cells were obtained directly from the ATCC. A Waters LC-MS system (2767 sample manager, 2998 UV detector and 3100 mass detector) was used for the analysis and purification of peptides. The analytical column was an Xbridge C18 4.6 mm x 100 mm. The preparative column used to purify the peptides was an Xbridge C18 19 mm x 100 mm. For analytical LC-MS, the flow rate was 1.2 mL/min, while preparative runs were at 20 mL/min. […]
All solvents contained an additive (0.1% formic acid). High resolution mass was recorded on a Micromass Autospec Premier through the Imperial College London mass spectrometry services. […]
as §4
Peptides were prepared using standard fluorenylmethoxycarbonyl (Fmoc) solid phase peptide synthesis. Reactions were monitored using the ninhydrin test. […]
380nm/440nm. The data was analysed using Graphpad Prism 8. The initial slopes of each plot were calculated and presented in a bar chart, which represents the substrate specificity of the KLK. […]
as §7

T1 sequence (P49862 30-253): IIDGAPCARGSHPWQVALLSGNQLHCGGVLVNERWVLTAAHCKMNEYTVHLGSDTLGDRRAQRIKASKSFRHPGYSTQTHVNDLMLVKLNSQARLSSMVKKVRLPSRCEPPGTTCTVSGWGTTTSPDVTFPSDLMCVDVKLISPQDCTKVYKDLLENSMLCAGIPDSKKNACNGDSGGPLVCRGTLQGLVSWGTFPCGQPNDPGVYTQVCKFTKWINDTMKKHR

## Ac-KHLF-{ACC} (SMILES CC(=O)N[C@@H](CCCCN)C(=O)N[C@@H](Cc1c[nH]cn1)C(=O)N[C@@H](CC(C)C)C(=O)N[C@@H](Cc1ccccc1)C(=O)Nc1ccc2c(CC(N)=O)cc(=O)oc2c1) [compound 24, purified fluorogenic substrate for KLK7]
[1]
  Km: 56 µM

## Boc-Val-Pro-Arg-{AMC}
[2]
  Km: 290 µM

## Cy5–DPhe–Ser(Z)–Dht–ArgPP [compound 21, Cy5-tagged KLK6 ABP]
[3]
  KLK6 kobs/I: 1000 M^–1 s^–1
[4]
  KLK8 kobs/I: 40 M^–1 s^–1
[5]
  KLK7 kobs/I: 26 M⁻¹ s⁻¹
[6]
  uPA kobs/I: 0 M⁻¹ s⁻¹
[7]
  tPA kobs/I: 8 M⁻¹ s⁻¹
[8]
  labeling of active recombinant KLK6: dose-dependent labeling
[9]
  labeling of inactive KLK6[S195A] mutant: not labeled

## Yn–DPhe–Ser(Z)–Dht–ArgPP [compound 19]
[3]
  KLK6 kobs/I: 3000 M^–1 s^–1
[10]
  engagement of endogenous tPA and uPA: does not substantively engage

## Z-GGR-AMC
[11]
  Km: 1200 µM
[12]
  Km: 190 µM
